From the supplement of paper PMC10307832

Experiments:
Assay in all cases: relative viability (nuclei count vs DMSO), 5 days (fraction); higher = more cells survive
SW 1573 = tested on: SW 1573
How it was run: (§1)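 Five library-drug doses in √10 steps were combined with a fixed anchor-drug dose, or a single drug was given alone, by pin tool to lung cancer cell lines in 1536-well plates the day after seeding. Nuclei were stained and counted after 5 days. Relative viability is the nuclei count in treated wells over that in vehicle wells, taken as the median of duplicate plates.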

LXF-289 = tested on: LXF-289
How it was run: as §1

PC-14 = tested on: PC-14
How it was run: as §1

EMC-BAC-2 = tested on: EMC-BAC-2
How it was run: as §1

NCI-H2023 = tested on: NCI-H2023
How it was run: as §1

H3255 = tested on: H3255
How it was run: as §1

NCI-H2009 = tested on: NCI-H2009
How it was run: as §1

NCI-H1734 = tested on: NCI-H1734
How it was run: as §1

NCI-H661 = tested on: NCI-H661
How it was run: as §1

HOP-62 = tested on: HOP-62
How it was run: as §1

NCI-H1915 = tested on: NCI-H1915
How it was run: as §1

NCI-H322M = tested on: NCI-H322M
How it was run: as §1

NCI-H2085 = tested on: NCI-H2085
How it was run: as §1

NCI-H2126 = tested on: NCI-H2126
How it was run: as §1

EPLC-272H = tested on: EPLC-272H
How it was run: as §1

SK-LU-1 = tested on: SK-LU-1
How it was run: as §1

LCLC-97TM1 = tested on: LCLC-97TM1
How it was run: as §1

NCI-H1993 = tested on: NCI-H1993
How it was run: as §1

NCI-H647 = tested on: NCI-H647
How it was run: as §1

NCI-H2347 = tested on: NCI-H2347
How it was run: as §1

NCI-H727 = tested on: NCI-H727
How it was run: as §1

COc1nc(C)cnc1NS(=O)(=O)c1cccnc1-c1ccc(-c2nnco2)cc1 [Zibotentan] + Nc1ncn([C@H]2C[C@H](O)[C@@H](CO)O2)c(=O)n1 [Decitabine] (partner 2 µM)
relative viability (SW 1573; first compound 0.08 µM): 0.611 | relative viability (SW 1573; first compound 0.8 µM): 0.702 | relative viability (SW 1573; first compound 2.53 µM): 0.613 | relative viability (LXF-289; first compound 0.08 µM): 0.357 | relative viability (LXF-289; first compound 0.253 µM): 0.346 | relative viability (LXF-289; first compound 0.8 µM): 0.409 | relative viability (LXF-289; first compound 2.53 µM): 0.367 | relative viability (PC-14; first compound 0.08 µM): 0.267 | relative viability (PC-14; first compound 0.253 µM): 0.198 | relative viability (PC-14; first compound 0.8 µM): 0.287 | relative viability (PC-14; first compound 2.53 µM): 0.265 | relative viability (EMC-BAC-2; first compound 0.08 µM): 1.01 | relative viability (EMC-BAC-2; first compound 0.8 µM): 0.968 | relative viability (EMC-BAC-2; first compound 2.53 µM): 1.01 | relative viability (NCI-H2023; first compound 0.08 µM): 0.245 | relative viability (NCI-H2023; first compound 0.253 µM): 0.211 | relative viability (NCI-H2023; first compound 0.8 µM): 0.203 | relative viability (NCI-H2023; first compound 2.53 µM): 0.214 | relative viability (H3255; first compound 0.08 µM): 0.671 | relative viability (H3255; first compound 0.253 µM): 0.601 | relative viability (H3255; first compound 0.8 µM): 0.586 | relative viability (H3255; first compound 2.53 µM): 0.564 | relative viability (NCI-H2009; first compound 0.08 µM): 0.404 | relative viability (NCI-H2009; first compound 0.253 µM): 0.398 | relative viability (NCI-H2009; first compound 0.8 µM): 0.417 | relative viability (NCI-H2009; first compound 2.53 µM): 0.377 | relative viability (NCI-H1734; first compound 0.08 µM): 0.486 | relative viability (NCI-H1734; first compound 0.253 µM): 0.496 | relative viability (NCI-H1734; first compound 0.8 µM): 0.513 | relative viability (NCI-H1734; first compound 2.53 µM): 0.541 | relative viability (NCI-H661; first compound 0.08 µM): 0.557 | relative viability (NCI-H661; first compound 0.253 µM): 0.529 | relative viability (NCI-H661; first compound 0.8 µM): 0.57 | relative viability (NCI-H661; first compound 2.53 µM): 0.552 | relative viability (HOP-62; first compound 0.08 µM): 0.169 | relative viability (HOP-62; first compound 0.253 µM): 0.19 | relative viability (HOP-62; first compound 0.8 µM): 0.209 | relative viability (HOP-62; first compound 2.53 µM): 0.207 | relative viability (NCI-H1915; first compound 0.08 µM): 0.248 | relative viability (NCI-H1915; first compound 0.253 µM): 0.262 | relative viability (NCI-H1915; first compound 0.8 µM): 0.27 | relative viability (NCI-H1915; first compound 2.53 µM): 0.257 | relative viability (NCI-H322M; first compound 0.08 µM): 0.74 | relative viability (NCI-H322M; first compound 0.253 µM): 0.679 | relative viability (NCI-H322M; first compound 0.8 µM): 0.733 | relative viability (NCI-H322M; first compound 2.53 µM): 0.856 | relative viability (NCI-H2085; first compound 0.08 µM): 0.566 | relative viability (NCI-H2085; first compound 0.253 µM): 0.54 | relative viability (NCI-H2085; first compound 0.8 µM): 0.592 | relative viability (NCI-H2085; first compound 2.53 µM): 0.56 | relative viability (NCI-H2126; first compound 0.08 µM): 0.617 | relative viability (NCI-H2126; first compound 0.253 µM): 0.602 | relative viability (NCI-H2126; first compound 0.8 µM): 0.599 | relative viability (NCI-H2126; first compound 2.53 µM): 0.551 | relative viability (EPLC-272H; first compound 0.08 µM): 0.41 | relative viability (EPLC-272H; first compound 0.253 µM): 0.304 | relative viability (EPLC-272H; first compound 0.8 µM): 0.366 | relative viability (EPLC-272H; first compound 2.53 µM): 0.394 | relative viability (SK-LU-1; first compound 0.08 µM): 0.805 | relative viability (SK-LU-1; first compound 0.253 µM): 0.688 | relative viability (SK-LU-1; first compound 0.8 µM): 0.722 | relative viability (SK-LU-1; first compound 2.53 µM): 0.642 | relative viability (LCLC-97TM1; first compound 0.08 µM): 0.26 | relative viability (LCLC-97TM1; first compound 0.253 µM): 0.266 | relative viability (LCLC-97TM1; first compound 0.8 µM): 0.229 | relative viability (LCLC-97TM1; first compound 2.53 µM): 0.246 | relative viability (NCI-H1993; first compound 0.08 µM): 0.639 | relative viability (NCI-H1993; first compound 0.253 µM): 0.576 | relative viability (NCI-H1993; first compound 0.8 µM): 0.521 | relative viability (NCI-H1993; first compound 2.53 µM): 0.61 | relative viability (NCI-H647; first compound 0.08 µM): 0.438 | relative viability (NCI-H647; first compound 0.253 µM): 0.341 | relative viability (NCI-H647; first compound 0.8 µM): 0.448 | relative viability (NCI-H647; first compound 2.53 µM): 0.509 | relative viability (NCI-H2347; first compound 0.08 µM): 0.583 | relative viability (NCI-H2347; first compound 0.253 µM): 0.586 | relative viability (NCI-H2347; first compound 0.8 µM): 0.744 | relative viability (NCI-H2347; first compound 2.53 µM): 0.604 | relative viability (NCI-H727; first compound 0.08 µM): 0.942 | relative viability (NCI-H727; first compound 0.253 µM): 0.826 | relative viability (NCI-H727; first compound 0.8 µM): 0.908 | relative viability (NCI-H727; first compound 2.53 µM): 0.874
